Test results reported in PMC6402191 (Clinical and Translational Science, 2017).
“And” between values parts separate entries of the source, which are not always exact repeats. Identical values can stand only once. Like-named read-outs stand apart in the source and are kept apart here. Marks after values point to notes of the source that are not given here.

Assays:
[1] = cited from earlier work; for fu (fraction unbound in plasma): ref 15 (probenecid), 16 (ibuprofen), 17, 18 (diclofenac)
[2] = Plasma concentrations used to calculate DDI indices and R values; type: in vivo, human; conditions: estimated from published Cmax and unbound fraction
[3] = PBPK modeling; parameters: species or system human
[4] = Pharmacokinetic input parameters of the PBPK models; type: in vivo, human
[5] = Clinical baricitinib-probenecid DDI study in healthy subjects; type: in vivo, human
[6] = target: MATE2-K (Homo sapiens, UniProt Q86VL8); assay: Inhibition of the MATE2-K-mediated uptake of baricitinib; type: in vitro ADME; conditions: for IC50: IC50 MATE2-K (mean), substrate 0.25 μM baricitinib, 0.5 min; for DDI index ([Iu]/IC50), MATE2-K: baricitinib as substrate
[7] = cited from earlier work
[8] = cited from earlier work; remark: listed apart in the source
[9] = cited from earlier work; remark: listed apart in the source
[10] = system: OAT3; conditions: read-out: IC50 OAT3, pemetrexed as substrate, cited from earlier work
[11] = published mean (CV) or range, ref 45 (ibuprofen), 17 (diclofenac)

Sequence of MATE2-K (Q86VL8 1-566 isoform Q86VL8-3): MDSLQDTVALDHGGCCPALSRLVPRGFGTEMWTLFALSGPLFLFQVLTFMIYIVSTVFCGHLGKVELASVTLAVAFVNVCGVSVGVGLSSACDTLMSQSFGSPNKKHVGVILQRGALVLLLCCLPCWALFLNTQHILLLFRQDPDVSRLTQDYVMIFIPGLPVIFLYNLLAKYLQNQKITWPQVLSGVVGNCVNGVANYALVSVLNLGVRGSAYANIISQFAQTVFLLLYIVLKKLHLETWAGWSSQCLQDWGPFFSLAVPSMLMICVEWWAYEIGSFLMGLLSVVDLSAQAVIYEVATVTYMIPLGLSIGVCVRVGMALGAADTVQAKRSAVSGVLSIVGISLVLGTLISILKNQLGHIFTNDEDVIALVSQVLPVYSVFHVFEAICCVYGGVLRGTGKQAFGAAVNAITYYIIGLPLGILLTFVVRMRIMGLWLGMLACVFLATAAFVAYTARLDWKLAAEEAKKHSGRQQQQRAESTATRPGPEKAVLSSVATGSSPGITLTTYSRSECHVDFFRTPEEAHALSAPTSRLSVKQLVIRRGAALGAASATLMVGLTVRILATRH

## CN(Cc1cnc2nc(N)nc(N)c2n1)c1ccc(C(=O)N[C@@H](CCC(=O)O)C(=O)O)cc1 [Methotrexate]
[1]
  plasma bound: e 15 mg s.c. dose, 46% plasma bound.30
[2]
  Cmax unbound inhibitor [Iu]: 0.6 µM

## CCCN(CCC)S(=O)(=O)c1ccc(C(=O)O)cc1 [Probenecid]
[3]
  Observed/Predicted Css,ave: 1.0
[4]; human, plasma, po, 2000 mg/day
  CL/F: 12.2 mL/min
[5]; healthy subjects, all drug-related treatment-emergent AEs mild
  tolerability: well tolerated
[5]; human, plasma, oral, 1000 mg
  Cmax: 145 µg/mL
[5]; human, plasma, oral, 1000 mg b.i.d.
  Tmax: 2 h
[5]; probenecid 1,000 mg BID
  Css,ave observed: 115 µg/mL
[5]; probenecid 1,000 mg b.i.d.
  trough plasma concentration (Cmin): 88 µg/mL
[6]; probenecid 0–200 μM, cimetidine, pyrimethamine 0–100 μM
  Inhibition of MATE2-K-mediated baricitinib transport (in words): did not inhibit
[7]; ref 20 (probenecid), 21 (ibuprofen), 17 (diclofenac)
  Fa (fraction absorbed): 1
[1]
  plasma bound: a 1 g oral dose, 91% plasma bound.29
[2]
  Cmax unbound inhibitor [Iu]: 22.1 µM

## NS(=O)(=O)c1cc(C(=O)O)c(NCc2ccco2)cc1Cl [furosemide]
[8]
  decrease of CLr by probenecid: 66%

## CCc1nc(N)nc(N)c1-c1ccc(Cl)cc1 [Pyrimethamine]
[6]
  IC50: 250 nM
  DDI index ([Iu]/IC50), MATE2-K: 0.5
[6]; listed as pyrimethamine
  DDI index ([Iu]/IC50), MATE2-K: 0.49
[1]
  plasma bound: g 25 mg oral dose, 87% plasma bound.32
[2]
  Cmax unbound inhibitor [Iu]: 0.1 µM

## CC(C)Cc1ccc(C(C)C(=O)O)cc1 (stereo not shown) [Ibuprofen]
[8]; [11]
  AUC observed: 218 (23) ^a μg·h/mL
[7]
  tlag: […]
[7]; ref 22 (probenecid), 23 (ibuprofen)
  ka (first-order absorption rate constant): […]
[1]
  fu (fraction unbound in plasma): 0.018
[9]
  LogP: […]
[10]
  IC50: […]

## O=C(O)Cc1ccccc1Nc1c(Cl)cccc1Cl [Diclofenac]
[4]; calculated as 1/gastric emptying time
  ka (first-order absorption rate constant): 6 h^‐1
[8]; [11]
  AUC observed: 2.7 – 4.4 ^b μg·h/mL
  Cmax observed: 1.2 – 3.6 ^b μg/mL
[7]; i.v., scaled by body weight to Simcyp population
  Clearance (i.v.): Clearance = 20 ^a (i.v.) L/h
[1]
  plasma bound: d 100 mg oral dose, 99.7% bound to plasma.30
  fu (fraction unbound in plasma): 0.003
[2]
  Cmax unbound inhibitor [Iu]: 0.03 µM
[10]
  IC50: […]
[10]; listed as diclofenac
  IC50: […]

## CN/C(=N/CCSCc1nc[nH]c1C)NC#N [Cimetidine]
[6]
  IC50: 5100 nM
  DDI index ([Iu]/IC50), MATE2-K: 1.57 and 1.6
[1]
  plasma bound: f 400 mg oral dose, 20% plasma bound.31
[2]
  Cmax unbound inhibitor [Iu]: 7.9 µM

## CCOC(=O)C1=C[C@@H](OC(CC)CC)[C@H](NC(C)=O)[C@@H](N)C1 [oseltamivir]
[8]
  decrease of clearance by probenecid: 32%
